For 15 compounds, GI50 results are on record in patent publication US12297194B2, “N2-phenylpyrimidine-2,4-diamine compounds, and preparation methods and methods of use thereof” (BRIDGE BIOTHERAPEUTICS, INC., priority 2021, dated 2025).

Holding throughout (assay type): cell-based, murine
The target in one experiment is Ba/F3 EGFR Wild-type (Homo sapiens, UniProt P00533). Kind of experiment: CellTiter-Glo cell viability, Ba/F3 EGFR wild-type cells. The conditions noted are these: 72 hours, read-out: Ba/F3 EGFR mutant cell (IC50, nM) WT. A digest of the protocol: (§1)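 IC50 values derive from CellTiter-Glo luminescence measured after 72 hours of treatment of EGFR-dependent Ba/F3 cells, dosed at concentrations up to 2000 nM starting 24 hours after seeding.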
Background: ATP-based viability assays read luminescence as a measure of living cells.

Experiment [1] concerns the target Ba/F3 EGFR L858R/C797S mutants (Homo sapiens, UniProt P00533, C797S/L858R, cells depend on it). Kind of experiment: CellTiter-Glo cell viability, Ba/F3 EGFR L858R/C797S cells. The settings on record: 72 hours, read-out: Ba/F3 EGFR mutant cell (IC50, nM) L/C. A digest of the protocol: as §1
In experiment [2] the target is Ba/F3 EGFR L858R/T790M/C797S mutants (Homo sapiens, UniProt P00533, T790M/C797S/L858R, cells depend on it). Nature of the experiment: CellTiter-Glo cell viability, Ba/F3 EGFR L858R/T790M/C797S cells. The conditions noted are these: 72 hours, read-out: Ba/F3 EGFR mutant cell (IC50, nM) L/T/C. An outline of the steps:
as §1

The target of experiment [3] is Ba/F3 EGFR Del19/T790M mutants (Homo sapiens, UniProt P00533, T790M, cells depend on it, form not given). Nature of the experiment: CellTiter-Glo cell viability, Ba/F3 EGFR Del19/T790M cells. The settings on record: 72 hours, read-out: Ba/F3 EGFR mutant cell (IC50, nM) D/T. An outline of the steps: as §1
Sequence of Ba/F3 EGFR Del19/T790M mutants (P00533 with tags, fused parts or gaps DEL746-750/T790M, form open): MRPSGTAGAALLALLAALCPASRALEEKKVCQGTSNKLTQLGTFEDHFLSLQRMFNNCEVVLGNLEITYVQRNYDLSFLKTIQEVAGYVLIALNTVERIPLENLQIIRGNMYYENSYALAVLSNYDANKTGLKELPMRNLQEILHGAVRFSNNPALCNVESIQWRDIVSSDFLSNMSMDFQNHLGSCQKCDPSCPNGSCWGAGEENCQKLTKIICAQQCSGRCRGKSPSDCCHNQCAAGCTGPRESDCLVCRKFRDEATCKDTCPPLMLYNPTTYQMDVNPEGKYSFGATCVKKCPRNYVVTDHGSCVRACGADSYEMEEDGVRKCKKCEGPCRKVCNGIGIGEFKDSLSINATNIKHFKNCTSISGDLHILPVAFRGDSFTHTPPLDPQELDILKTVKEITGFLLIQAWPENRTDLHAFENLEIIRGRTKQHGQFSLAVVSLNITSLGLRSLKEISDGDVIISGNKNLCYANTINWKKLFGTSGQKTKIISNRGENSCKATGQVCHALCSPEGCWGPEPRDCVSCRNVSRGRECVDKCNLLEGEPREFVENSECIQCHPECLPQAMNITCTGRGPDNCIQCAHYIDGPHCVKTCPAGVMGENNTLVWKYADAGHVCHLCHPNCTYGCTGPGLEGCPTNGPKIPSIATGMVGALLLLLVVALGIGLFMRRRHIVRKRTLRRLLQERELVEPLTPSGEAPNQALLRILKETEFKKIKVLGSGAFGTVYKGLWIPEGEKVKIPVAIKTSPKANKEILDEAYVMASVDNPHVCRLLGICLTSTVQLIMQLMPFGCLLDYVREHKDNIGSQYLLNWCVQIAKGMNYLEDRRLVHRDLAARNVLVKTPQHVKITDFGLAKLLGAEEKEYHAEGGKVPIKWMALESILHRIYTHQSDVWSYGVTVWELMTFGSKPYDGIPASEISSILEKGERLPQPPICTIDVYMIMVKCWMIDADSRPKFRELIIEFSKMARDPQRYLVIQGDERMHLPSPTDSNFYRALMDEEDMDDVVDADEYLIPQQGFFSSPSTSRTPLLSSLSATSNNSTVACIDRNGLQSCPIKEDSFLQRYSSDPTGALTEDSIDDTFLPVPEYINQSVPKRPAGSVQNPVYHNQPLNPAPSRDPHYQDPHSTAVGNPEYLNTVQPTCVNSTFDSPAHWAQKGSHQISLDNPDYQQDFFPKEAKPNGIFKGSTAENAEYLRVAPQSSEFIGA
Experiment [4] concerns the target Ba/F3 EGFR Del19/C797S mutants (Homo sapiens, UniProt P00533, C797S, cells depend on it, form not given). Nature of the experiment: CellTiter-Glo cell viability, Ba/F3 EGFR Del19/C797S cells. The settings on record: 72 hours, read-out: Ba/F3 EGFR mutant cell (IC50, nM) D/C. A digest of the protocol: as §1
The target of experiment [5] is Ba/F3 EGFR Del19/T790M/C797S mutants (Homo sapiens, UniProt P00533, T790M/C797S, cells depend on it, form not given). Nature of the experiment: CellTiter-Glo cell viability, Ba/F3 EGFR Del19/T790M/C797S cells. The conditions noted are these: 72 hours, read-out: Ba/F3 EGFR mutant cell (IC50, nM) D/T/C. A digest of the protocol: as §1
Sequence of Ba/F3 EGFR Del19/T790M/C797S mutants (P00533 with tags, fused parts or gaps DEL746-750/T790M/C797S, form open): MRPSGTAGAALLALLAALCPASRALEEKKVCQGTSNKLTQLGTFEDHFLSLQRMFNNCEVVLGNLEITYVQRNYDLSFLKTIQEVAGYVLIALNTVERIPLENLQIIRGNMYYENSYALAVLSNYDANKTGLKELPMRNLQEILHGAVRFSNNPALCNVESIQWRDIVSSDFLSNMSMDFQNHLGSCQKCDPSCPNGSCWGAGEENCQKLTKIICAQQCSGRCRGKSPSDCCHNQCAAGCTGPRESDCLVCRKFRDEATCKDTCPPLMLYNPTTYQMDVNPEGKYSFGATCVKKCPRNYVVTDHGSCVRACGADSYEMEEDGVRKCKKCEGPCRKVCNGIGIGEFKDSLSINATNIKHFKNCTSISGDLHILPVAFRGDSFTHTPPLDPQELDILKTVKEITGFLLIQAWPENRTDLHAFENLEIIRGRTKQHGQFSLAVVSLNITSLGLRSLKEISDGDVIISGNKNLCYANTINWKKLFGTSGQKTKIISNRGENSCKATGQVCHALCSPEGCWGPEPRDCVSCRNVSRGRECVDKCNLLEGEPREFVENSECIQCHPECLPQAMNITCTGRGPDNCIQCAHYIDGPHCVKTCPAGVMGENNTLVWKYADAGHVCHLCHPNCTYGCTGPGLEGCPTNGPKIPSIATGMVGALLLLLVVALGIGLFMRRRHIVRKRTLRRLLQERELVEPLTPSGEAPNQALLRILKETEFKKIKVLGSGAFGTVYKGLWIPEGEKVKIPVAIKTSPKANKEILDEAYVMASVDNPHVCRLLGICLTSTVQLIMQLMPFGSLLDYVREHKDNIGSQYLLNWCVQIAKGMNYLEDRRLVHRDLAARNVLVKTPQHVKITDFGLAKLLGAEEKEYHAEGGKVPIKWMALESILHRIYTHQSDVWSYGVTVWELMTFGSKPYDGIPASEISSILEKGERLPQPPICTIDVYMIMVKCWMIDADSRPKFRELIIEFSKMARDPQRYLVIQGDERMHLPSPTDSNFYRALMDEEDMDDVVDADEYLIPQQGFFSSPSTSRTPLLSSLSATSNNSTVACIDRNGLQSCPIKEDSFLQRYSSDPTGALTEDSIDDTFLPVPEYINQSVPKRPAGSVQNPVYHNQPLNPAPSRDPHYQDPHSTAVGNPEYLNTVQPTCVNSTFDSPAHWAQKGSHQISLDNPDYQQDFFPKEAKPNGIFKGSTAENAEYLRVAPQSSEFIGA

Sequence of Ba/F3 EGFR Del19/C797S mutants (P00533 with tags, fused parts or gaps DEL746-750/C797S, form open): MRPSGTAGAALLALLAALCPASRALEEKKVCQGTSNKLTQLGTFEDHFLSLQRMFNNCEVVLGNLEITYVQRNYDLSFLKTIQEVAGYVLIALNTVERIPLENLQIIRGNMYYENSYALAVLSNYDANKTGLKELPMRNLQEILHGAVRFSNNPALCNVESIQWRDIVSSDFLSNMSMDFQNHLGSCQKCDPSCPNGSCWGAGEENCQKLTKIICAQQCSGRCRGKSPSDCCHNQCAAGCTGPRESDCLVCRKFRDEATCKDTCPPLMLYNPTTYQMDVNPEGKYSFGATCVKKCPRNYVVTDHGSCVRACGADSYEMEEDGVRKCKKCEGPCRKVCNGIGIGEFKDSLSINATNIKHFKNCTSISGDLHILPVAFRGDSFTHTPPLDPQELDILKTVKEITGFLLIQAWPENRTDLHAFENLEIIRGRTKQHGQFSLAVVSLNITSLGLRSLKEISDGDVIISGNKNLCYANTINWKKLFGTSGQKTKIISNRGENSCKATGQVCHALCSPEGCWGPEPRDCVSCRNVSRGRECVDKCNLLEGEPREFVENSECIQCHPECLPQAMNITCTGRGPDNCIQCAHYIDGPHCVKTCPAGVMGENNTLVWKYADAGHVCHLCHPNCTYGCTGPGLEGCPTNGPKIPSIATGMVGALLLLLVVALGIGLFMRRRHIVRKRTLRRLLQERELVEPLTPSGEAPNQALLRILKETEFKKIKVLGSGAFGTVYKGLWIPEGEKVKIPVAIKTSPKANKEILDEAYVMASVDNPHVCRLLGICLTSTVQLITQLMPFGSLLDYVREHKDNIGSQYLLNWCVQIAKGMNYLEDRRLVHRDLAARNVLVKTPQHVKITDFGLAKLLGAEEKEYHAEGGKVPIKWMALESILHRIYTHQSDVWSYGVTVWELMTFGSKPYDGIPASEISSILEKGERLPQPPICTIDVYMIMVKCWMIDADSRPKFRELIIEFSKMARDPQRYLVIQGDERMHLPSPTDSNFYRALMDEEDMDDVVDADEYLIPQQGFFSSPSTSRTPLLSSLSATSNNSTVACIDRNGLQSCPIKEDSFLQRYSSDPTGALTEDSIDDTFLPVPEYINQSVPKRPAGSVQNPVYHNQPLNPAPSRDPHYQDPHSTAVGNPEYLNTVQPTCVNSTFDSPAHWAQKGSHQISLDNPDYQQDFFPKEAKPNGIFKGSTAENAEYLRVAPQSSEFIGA
Sequence of Ba/F3 EGFR L858R/C797S mutants (P00533 whole entry C797S/L858R): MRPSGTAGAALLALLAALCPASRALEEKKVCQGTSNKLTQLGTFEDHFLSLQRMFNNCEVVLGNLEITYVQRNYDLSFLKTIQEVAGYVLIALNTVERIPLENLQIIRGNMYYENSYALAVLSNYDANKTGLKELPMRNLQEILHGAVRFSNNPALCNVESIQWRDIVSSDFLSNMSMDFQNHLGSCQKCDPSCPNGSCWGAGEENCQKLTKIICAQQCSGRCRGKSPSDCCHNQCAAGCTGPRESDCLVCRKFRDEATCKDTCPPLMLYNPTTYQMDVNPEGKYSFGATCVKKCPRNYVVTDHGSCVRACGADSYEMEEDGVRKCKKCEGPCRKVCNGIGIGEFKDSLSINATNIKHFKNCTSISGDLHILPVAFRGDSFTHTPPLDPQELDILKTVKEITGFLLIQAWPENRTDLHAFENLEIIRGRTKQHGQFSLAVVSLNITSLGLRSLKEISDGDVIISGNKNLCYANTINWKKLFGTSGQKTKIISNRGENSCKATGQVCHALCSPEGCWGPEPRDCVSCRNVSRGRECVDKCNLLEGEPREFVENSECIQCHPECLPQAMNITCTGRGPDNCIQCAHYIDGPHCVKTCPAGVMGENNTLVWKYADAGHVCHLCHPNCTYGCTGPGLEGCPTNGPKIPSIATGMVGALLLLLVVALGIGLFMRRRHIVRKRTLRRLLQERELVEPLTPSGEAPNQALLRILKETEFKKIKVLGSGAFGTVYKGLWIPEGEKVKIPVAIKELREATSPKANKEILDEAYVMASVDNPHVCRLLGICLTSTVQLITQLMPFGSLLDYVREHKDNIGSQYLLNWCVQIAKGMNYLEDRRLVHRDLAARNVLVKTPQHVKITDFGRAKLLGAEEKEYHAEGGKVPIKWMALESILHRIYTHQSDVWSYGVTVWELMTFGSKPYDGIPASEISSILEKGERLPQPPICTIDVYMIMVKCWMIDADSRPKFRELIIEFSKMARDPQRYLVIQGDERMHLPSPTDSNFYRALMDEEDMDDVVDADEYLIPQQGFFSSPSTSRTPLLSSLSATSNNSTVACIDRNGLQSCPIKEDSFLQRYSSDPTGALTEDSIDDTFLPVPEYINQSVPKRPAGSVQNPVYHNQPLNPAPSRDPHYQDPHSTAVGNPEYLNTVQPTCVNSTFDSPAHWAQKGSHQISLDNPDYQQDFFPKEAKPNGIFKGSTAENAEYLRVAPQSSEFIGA

Regarding `CCc1cc(Nc2ncc(Br)c(Nc3cccc(OC)c3NS(C)(=O)=O)n2)c(OC)cc1N1CCC(N2CCN(C)CC2)CC1` [Example C22, N-(2-((5-bromo-2-((5-ethyl-2-methoxy-4-(4-(4-methylpiperazin-1-yl)piperidin-1-yl)phenyl)amino)pyrimidin-4-yl)amino)-6-methoxyphenyl)methanesulfonamide], the GI50 at Ba/F3 EGFR Wild-type turned out to be 738 nM; in experiment [1], 36 nM; in experiment [2], 25 nM; in experiment [3], 4 nM; in experiment [4], 5 nM; in experiment [5], 2 nM.
Consider `COc1ccc(Nc2nc(Nc3cc(C)c(N4CCC(N5CCCC5)CC4)cc3OC)ncc2Cl)c(NS(C)(=O)=O)c1` [Example C11, N-(2-((5-chloro-2-((2-methoxy-5-methyl-4-(4-(pyrrolidin-1-yl)piperidin-1-yl)phenyl)amino)pyrimidin-4-yl)amino)-5-methoxyphenyl)methanesulfonamide], for which the GI50 on Ba/F3 EGFR Wild-type came to 458 nM; in experiment [1], 45 nM; in experiment [2], 39 nM; in experiment [3] it was 5 nM; in experiment [4], 6 nM; in experiment [5], 9 nM.
`CCS(=O)(=O)Nc1c(Nc2nc(Nc3cc(C)c(N4CCC(N5CCN(C)CC5)CC4)cc3OC)ncc2Cl)ccc2nccnc12` [Example A25, N-(6-((5-chloro-2-((2-methoxy-5-methyl-4-(4-(4-methylpiperazin-1-yl)piperidin-1-yl)phenyl)amino)pyrimidin-4-yl)amino)quinoxalin-5-yl)ethanesulfonamide]: the GI50 was determined as 373 nM on Ba/F3 EGFR Wild-type; 112 nM in experiment [1]; 34 nM in experiment [2]; 18 nM in experiment [3]; 46 nM in experiment [4]; 134 nM in experiment [5].
With `COc1cc(N2CCC(N(C)C)CC2)c(C)cc1Nc1ncc(Br)c(Nc2cccc(OC)c2N(C)S(C)(=O)=O)n1` [Example C5, N-(2-((5-bromo-2-((4-(4-(dimethylamino)piperidin-1-yl)-2-methoxy-5-methylphenyl)amino)pyrimidin-4-yl)amino)-6-methoxyphenyl)-N-methylmethanesulfonamide], the GI50 at Ba/F3 EGFR Wild-type was 545 nM; in experiment [1] it was 91 nM; in experiment [2] it was 94 nM; in experiment [3], 17 nM; in experiment [4] it was 19 nM; in experiment [5] it was 34 nM.
`COc1cc(N2CCNCC2)ccc1Nc1ncc(Cl)c(Nc2ccc3nccnc3c2NS(C)(=O)=O)n1` [Example B16, N-(6-((5-chloro-2-((2-methoxy-4-(piperazin-1-yl)phenyl)amino)pyrimidin-4-yl)amino)quinoxalin-5-yl)methanesulfonamide]: the GI50 on Ba/F3 EGFR Wild-type is 1890 nM; in experiment [1], 778 nM; in experiment [2] it was 823 nM; in experiment [3], 402 nM; in experiment [4] it was 361 nM; in experiment [5], 741 nM.
Turning to `CCc1cc(Nc2ncc(Br)c(N(C)c3ccc4nccnc4c3N(C)S(C)(=O)=O)n2)c(OC)cc1N1CCC(N(C)C)CC1` [Example B19, N-(6-((5-bromo-2-((4-(4-(dimethylamino)piperidin-1-yl)-5-ethyl-2-methoxyphenyl)amino)pyrimidin-4-yl)(methyl)amino)quinoxalin-5-yl)-N-methylmethane sulfonamide], the GI50 on Ba/F3 EGFR Wild-type was found to be 1410 nM; in experiment [1], 182 nM; in experiment [2], 82 nM; in experiment [3] it was 20 nM; in experiment [4] it was 36 nM; in experiment [5], 25 nM.
As for `COc1cc(N2CCC(N(C)C)CC2)c(C)cc1Nc1ncc(Br)c(Nc2ccc3nccnc3c2NS(C)(=O)=O)n1` [Example B1, N-(6-((5-bromo-2-((4-(4-(dimethylamino)piperidin-1-yl)-2-methoxy-5-methylphenyl)amino)pyrimidin-4-yl)amino)quinoxalin-5-yl)methanesulfonamide], the GI50 at Ba/F3 EGFR Wild-type was found to be 302 nM; in experiment [1], 64 nM; in experiment [2], 28 nM; in experiment [3], 8 nM; in experiment [4] it was 38 nM; in experiment [5], 7 nM.
Take `COc1cc(N2CCC(N3CCN(CC(F)F)CC3)CC2)ccc1Nc1ncc(Cl)c(Nc2ccc3nccnc3c2NS(C)(=O)=O)n1` [Example A37, N-(6-((5-chloro-2-((4-(4-(4-(2,2-difluoroethyl)piperazin-1-yl)piperidin-1-yl)-2-methoxyphenyl)amino)pyrimidin-4-yl)amino)quinoxalin-5-yl)methane sulfonamide]: the GI50 came out at 734 nM at Ba/F3 EGFR Wild-type; 451 nM in experiment [1]; 640 nM in experiment [2]; 174 nM in experiment [3]; 126 nM in experiment [4]; 205 nM in experiment [5].
As to `CCc1cc(Nc2ncc(Cl)c(Nc3ccc4nccnc4c3NS(C)(=O)=O)n2)c(OC)cc1N1CCC(N2CCCC2)CC1` [Example A34, N-(6-((5-chloro-2-((5-ethyl-2-methoxy-4-(4-(pyrrolidin-1-yl)piperidin-1-yl)phenyl)amino)pyrimidin-4-yl)amino)quinoxalin-5-yl)methanesulfonamide], the GI50 at Ba/F3 EGFR Wild-type was above 2000 nM; in experiment [1], 16 nM; in experiment [2], 13 nM; in experiment [3] it was 5 nM; in experiment [4], 1 nM; in experiment [5], 4 nM.
On to `CCc1cc(Nc2ncc(Cl)c(Nc3ccc4nccnc4c3N(C)S(C)(=O)=O)n2)c(OC)cc1N1CC2(C1)CN(C(C)C)C2` [Example B27, N-(6-((5-chloro-2-((5-ethyl-4-(6-isopropyl-2,6-diazaspiro[3.3]heptan-2-yl)-2-methoxyphenyl)amino)pyrimidin-4-yl)amino)quinoxalin-5-yl)-N-methylmethanesulfonamide], for which the GI50 on Ba/F3 EGFR Wild-type turned out to be 359 nM; in experiment [1], 35 nM; in experiment [2], 40 nM; in experiment [3], 25 nM; in experiment [4], 18 nM; in experiment [5], 5 nM.
As to `CCc1cc(Nc2ncc(Cl)c(Nc3ccc4nccnc4c3N(C)S(C)(=O)=O)n2)c(OC)cc1N1CCC(N2CC3CCC2CN3C)CC1` (stereo not drawn) [Example A47, N-(6-((5-chloro-2-((5-ethyl-2-methoxy-4-(4-(5-methyl-2,5-diazabicyclo[2.2.2]octan-2-yl)piperidin-1-yl)phenyl)amino)pyrimidin-4-yl)amino)quinoxalin-5-yl)-N-methylmethanesulfonamide], the GI50 amounted to 730 nM on Ba/F3 EGFR Wild-type; 125 nM in experiment [1]; 64 nM in experiment [2]; 17 nM in experiment [3]; 7 nM in experiment [4]; 25 nM in experiment [5].
`CCCc1cc(Nc2ncc(F)c(Nc3ccc4nccnc4c3NS(C)(=O)=O)n2)c(OC)cc1N1CCC(N2CCN(C)CC2)CC1` [Example A32, N-(6-((5-fluoro-2-((2-methoxy-4-(4-(4-methylpiperazin-1-yl)piperidin-1-yl)-5-propylphenyl)amino)pyrimidin-4-yl)amino)quinoxalin-5-yl)methanesulfonamide]: the GI50 was found to be 603 nM on Ba/F3 EGFR Wild-type; 51 nM in experiment [1]; 229 nM in experiment [2]; 27 nM in experiment [3]; 11 nM in experiment [4]; 91 nM in experiment [5].
As for `COc1cc(N2CCC(N3CCN(C)CC3)CC2)c(C)cc1Nc1ncc(Br)c(Nc2cccc(OC)c2N(C)S(C)(=O)=O)n1` [Example C21, N-(2-((5-bromo-2-((2-methoxy-5-methyl-4-(4-(4-methylpiperazin-1-yl)piperidin-1-yl)phenyl)amino)pyrimidin-4-yl)amino)-6-methoxyphenyl)-N-methylmethanesulfonamide], the GI50 at Ba/F3 EGFR Wild-type came to 660 nM; in experiment [1] it was 61 nM; in experiment [2], 49 nM; in experiment [3], 18 nM; in experiment [4] it was 10 nM; in experiment [5], 13 nM.
In the case of `CCc1cc(Nc2ncc(Br)c(Nc3ccc4nccnc4c3NS(C)(=O)=O)n2)c(OC)cc1N1CCC(N2CCOCC2)CC1` [Example A28, N-(6-((5-bromo-2-((5-ethyl-2-methoxy-4-(4-morpholinopiperidin-1-yl)phenyl)amino)pyrimidin-4-yl)amino)quinoxalin-5-yl)methanesulfonamide], the GI50 at Ba/F3 EGFR Wild-type worked out at 318 nM; in experiment [1] it was 101 nM; in experiment [2], 17 nM; in experiment [3], 10 nM; in experiment [4], 36 nM; in experiment [5], 51 nM.
For `CCCc1cc(Nc2ncc(Cl)c(Nc3ccc4nccnc4c3NS(C)(=O)=O)n2)c(OC)cc1N1CCC(N(C)C)CC1` [Example B12, N-(6-((5-chloro-2-((4-(4-(dimethylamino)piperidin-1-yl)-2-methoxy-5-propylphenyl)amino)pyrimidin-4-yl)amino)quinoxalin-5-yl)methanesulfonamide], the GI50 on Ba/F3 EGFR Wild-type came to 431 nM; in experiment [1], 87 nM; in experiment [2] it was 36 nM; in experiment [3], 19 nM; in experiment [4], 29 nM; in experiment [5], 104 nM.
